The text below walks through data of US7163589B2 (priority 2001, dated 2007).

The test relates to Mouse immunoglobulin (IgG).

With `COC(F)(F)C(F)(F)C(F)(F)C(F)(F)F` [HFE-7100, methyl nonafluorobutyl ether], the “Effect on protein conformation (denaturation)” value is “changes the conformation of the proteins”.
